pEC50: −log10 of the molar value.
Experiments:
[1] = system: HCV genotype 1b (HCV-1b) replicon cells; test: HCV genotype 1b replicon luciferase assay (EC50); assay type: cell-based, hepatitis C virus genotype 1b (Con1 clone); details: 3 days, luciferase (Bright-Glo)
Description: (§1) The EC50 and CC50 values of anti-HCV compounds were determined by HCV genotype 1a (HCV-1a) and 1B (HCV-1b) stable transfer replication (replicon) cells. The source of genotype 1a replicon is H77 clones containing K1691R, K2040R and S2204I adaptive mutations. The source of genotype 1b replicon is Con1 clones containing E1202G, T1280I and K1846T adaptive mutations.
(§2) HCV 1a (HCV-1a) and 1b (HCV-1b) gene subtype replicon system contains the related HCV gene subtype non structural protein gene, G418 resistance gene NEO and luciferase gene, which results in that HCV related protein and luciferase can be stably expressed in cells. By detecting the level of expression of luciferase gene, the level of HCV replication can be determined. Therefore, the system is used as a model for screening the activity of anti-HCV compound in vitro.
(§3) HCV Replicon Cell Lines: HCV-1a and HCV-1b Cells
(§4) The compound powder was dissolved in 100% DMSO. Then the compound was diluted 5 times with 6 points, and added into the cell plate with Echo liquid handler. Ensure the final concentration of DMSO was 0.5%. Each compound was tested in double holes. Maximum initial concentration was 100, 10 or 1 nM, 5 times dilution, 6 points.
(§5) b) Cell Culture (HCV-1a or HCV-1b Replicon Cell):
(§6) 1) absorbing the culture supernatant of the cell culture and washing the cells with 10 mL PBS.
(§7) 2) adding preheated pancreatin to the washed cell culture flasks, rotating culture bottle to make the bottom of the culture bottle uniformly covered by pancreatin, then placed into 37° C., 5% CO2 incubator to digest.
(§8) 3) suspending cells in each T150 culture flask with 10-15 mL culture medium, absorbing 0.1 mL liquid and diluting 2 times by trypan blue solution as counted.
(§9) 4) diluting cells to 8×10^4/mL with the culture medium, adding the diluted cells into the compound-containing 96-well plate (Greiner, Cat.#655090) (100 μL/well, 8000 cells/well) with automatic liquid separator (Thermo Scientific). Then place into a 37° C., 5% CO2 incubator for 3 days. Cell control well: no compound, only containing 0.5% DMSO.
(§10) 6) then adding luciferase luminescence substrate Bright-Glo, after incubation for 5 minutes, detecting the luciferase activity by chemical luminescence detection system Envison (wavelength>700 nm); analyzing the anti-HCV inhibitory activity of the compounds according to luciferase data, which was used to calculate EC50 values.
(§11) The EC50 or CC50 values were obtained by nonlinear fitting analysis on inhibition percentage (inh %) data with GraphPad Prism software.

[2] = system: HCV genotype 1a (HCV-1a) replicon cells; test: HCV genotype 1a replicon luciferase assay (EC50); assay type: cell-based, hepatitis C virus genotype 1a (H77 clone); details: Hepatitis C virus, 72 h, 3 days, luciferase (Bright-Glo)
Description: as §1, §2, §3, §4, §5, §6, §7, §8, §9, §10, §11

Structure (SMILES) | pEC50 [1] | pEC50 ([1]; Hepatitis C virus, 72 h) | pEC50 [2]
COC(=O)N[C@H](C(=O)N1CCC[C@H]1c1ncc(-c2ccc(-c3ccc(-c4cnc(C5C6CCC(C6)[C@H]5C(=O)N(NC(=O)OC)C(C)C)[nH]4)cc3)cc2)[nH]1)C(C)C (stereo partly shown) [AA_016] | 9.00 to 10.00 |  | 
COC(=O)N[C@H](C(=O)N1CCC[C@H]1c1ncc(-c2ccc(-c3ccc(-c4cnc(C5=C(C(=O)NC(C)C)CCC5)[nH]4)cc3)cc2)[nH]1)C(C)C [AA_027] |  | 7.00 to 8.00 | 
COC(=O)NC(C(=O)C1CCCCC1c1ncc(-c2ccc(-c3ccc(-c4cnc(C5CCCC[C@H]5C(=O)N(NC(=O)OC)C(C)C)[nH]4)cc3)cc2)[nH]1)C(C)C (stereo partly shown) [AA_029] |  | 7.00 to 8.00 | 
COC(=O)N[C@H](C(=O)N1CCC[C@H]1c1ncc(-c2ccc(-c3ccc(-c4cnc(C5C6C=CC(C6)[C@H]5C(=O)N(NC(=O)OC)C(C)C)[nH]4)cc3)cc2)[nH]1)C(C)C (stereo partly shown) [AA_032] |  | 9.00 to 10.00 | 
COC(=O)NN(C(=O)C1=C(c2ncc(-c3ccc(-c4ccc(-c5cnc(C6=C(C(=O)N(NC(=O)OC)C(C)C)CCC6)[nH]5)cc4)cc3)[nH]2)CCC1)C(C)C [AA_033] |  | 7.00 to 8.00 | 7.00 to 8.00
COC(=O)NN(C(=O)[C@@H]1C2C=CC(C2)C1c1ncc(-c2ccc(-c3ccc(-c4cnc(C5C6C=CC(C6)[C@@H]5C(=O)N(NC(=O)OC)C(C)C)[nH]4)cc3)cc2)[nH]1)C(C)C (stereo partly shown) [AA_034] |  | 7.00 to 8.00 | 7.00 to 8.00
COC(=O)N[C@H](C(=O)N1CCC[C@H]1c1ncc(-c2ccc(-c3ccc(-c4cnc(C5=C(C(=O)N(CC(=O)O)C(C)C)CCC5)[nH]4)cc3)cc2)[nH]1)C(C)C [AA_047] |  | 7.00 to 8.00 | 
COC(=O)N[C@H](C(=O)N1CCC[C@H]1c1ncc(-c2ccc(-c3ccc(-c4cnc(C5CCCC[C@H]5C(=O)N5CCNC(=O)C5)[nH]4)cc3)cc2)[nH]1)C(C)C (stereo partly shown) [AA_054] |  | 9.00 to 10.00 | 
COC(=O)N[C@H](C(=O)N1CCC[C@H]1c1ncc(-c2ccc(-c3ccc(-c4cnc(C5CCCC[C@H]5C(=O)N5CCCC5)[nH]4)cc3)cc2)[nH]1)C(C)C (stereo partly shown) [AA_055] |  | 8.00 to 9.00 | 
COC(=O)N[C@H](C(=O)N1CCC[C@H]1c1ncc(-c2ccc(-c3ccc(-c4cnc(C5CCCC[C@H]5C(=O)N5CCOCC5)[nH]4)cc3)cc2)[nH]1)C(C)C (stereo partly shown) [AA_056] |  | 8.00 to 9.00 | 
COC(=O)N[C@H](C(=O)N1CCC[C@H]1c1ncc(-c2ccc(-c3ccc(-c4cnc(C5CCCC[C@H]5C(=O)N5CCCCC5)[nH]4)cc3)cc2)[nH]1)C(C)C (stereo partly shown) [AA_057] |  | 7.00 to 8.00 | 
COC(=O)CN(C(=O)[C@@H]1CCCCC1c1ncc(-c2ccc(-c3ccc(-c4cnc([C@@H]5CCCN5C(=O)[C@@H](NC(=O)OC)C(C)C)[nH]4)cc3)cc2)[nH]1)C(C)C (stereo partly shown) [AA_063] |  | 8.00 to 9.00 | 
COC(=O)N[C@H](C(=O)N1CCC[C@H]1c1ncc(-c2ccc(-c3ccc(-c4cnc(C5=C(C(=O)N(CC(=O)NC6CC6)C(C)C)CCC5)[nH]4)cc3)cc2)[nH]1)C(C)C [AA_064] |  | 8.00 to 9.00 | 
CNC(=O)CN(C(=O)C1=C(c2ncc(-c3ccc(-c4ccc(-c5cnc([C@@H]6CCCN6C(=O)[C@@H](NC(=O)OC)C(C)C)[nH]5)cc4)cc3)[nH]2)CCC1)C(C)C [AA_065] |  | 8.00 to 9.00 | 
COC(=O)NC(C(=O)N1CCC[C@H]1c1ncc(-c2ccc(-c3ccc4cc(-c5cnc(C6CCCC[C@H]6C(=O)N(NC(=O)OC)C(C)C)[nH]5)ccc4c3)cc2)[nH]1)C1CCOC1 (stereo partly shown) [AA_076] |  | 8.00 to 9.00 | 
COC(=O)N[C@H](C(=O)N1CCC[C@H]1c1ncc(-c2ccc3cc(-c4cnc(C5CCCC[C@H]5C(=O)N(NC(=O)OC)C(C)C)[nH]4)ccc3c2)[nH]1)C(C)C (stereo partly shown) [AA_079] |  | 7.00 to 8.00 | 
COC(=O)NC(C(=O)[C@@H]1CCCCC1c1ncc(-c2ccc(-c3ccc4c(c3)cc3n4C(c4ccc(F)cc4)Oc4cc(-c5cnc([C@@H]6CCCN6C(=O)[C@@H](NC(=O)OC)C(C)C)[nH]5)ccc4-3)cc2)[nH]1)C(C)C (stereo partly shown) [AA_089] |  | 8.00 to 9.00 | 
COC(=O)N[C@H](C(=O)N1CCC[C@H]1c1ncc(-c2ccc3cc(-c4ccc(-c5cnc([C@@H]6CCCC[C@@H]6C(=O)N(NC(=O)OC)C(C)C)[nH]5)cc4)ccc3c2)[nH]1)C(C)C [AA_090_A] |  | 8.00 to 9.00 | 

Structure (SMILES) | pEC50 [1] | pEC50 ([1]; Hepatitis C virus, 72 h) | pEC50 [2]
COC(=O)N[C@H](C(=O)N1CCC[C@H]1c1ncc(-c2ccc3cc(-c4ccc(-c5cnc([C@H]6CCCC[C@H]6C(=O)N(NC(=O)OC)C(C)C)[nH]5)cc4)ccc3c2)[nH]1)C(C)C [AA_090_B] |  | 8.00 to 9.00 | 
COC(=O)NN(C(=O)C1C2CCC(O2)[C@H]1c1ncc(-c2ccc(-c3ccc4cc(-c5cnc(C6CCCC[C@H]6C(=O)N(NC(=O)OC)C(C)C)[nH]5)ccc4c3)cc2)[nH]1)C(C)C (stereo partly shown) [AA_092] |  | 7.00 to 8.00 | 
COC(=O)N[C@H](C(=O)N1CCC[C@H]1c1ncc(-c2ccc(-c3ccc(-c4cnc(C5C6CCC(O6)[C@H]5C(=O)N(NC(=O)OC)C(C)C)[nH]4)cc3)cc2)[nH]1)C(C)C (stereo partly shown) [AA_095] |  | 8.00 to 9.00 | 
COC(=O)N[C@H](C(=O)N1CCC[C@H]1c1ncc(-c2ccc(-c3ccc([C@@H](C)NC(=O)[C@H]4CCCC[C@H]4C(=O)N(NC(=O)OC)C(C)C)cc3)cc2)[nH]1)C(C)C [AA_096] |  | 7.00 to 8.00 | 
COC(=O)N[C@H](C(=O)N1CCC[C@H]1c1ncc(-c2ccc(-c3ccc([C@H](C)NC(=O)[C@H]4CCCC[C@H]4C(=O)N(NC(=O)OC)C(C)C)cc3)cc2)[nH]1)C(C)C [AA_097] |  | 7.00 to 8.00 | 
COC(=O)N[C@H](C(=O)N1CCC[C@H]1c1ncc(-c2ccc3cc(-c4ccc(-c5cnc([C@H]6C7CCC(O7)[C@H]6C(=O)N(NC(=O)OC)C(C)C)[nH]5)cc4)ccc3c2)[nH]1)C(C)C (stereo partly shown) [AA_106] |  | 7.00 to 8.00 | 
COC(=O)N[C@H](C(=O)N1CCC[C@H]1c1ncc(-c2ccc3cc(-c4ccc(-c5cnc([C@@H]6C7CCC(O7)[C@@H]6C(=O)N(NC(=O)OC)C(C)C)[nH]5)cc4)ccc3c2)[nH]1)C(C)C (stereo partly shown) [AA_107] |  | 7.00 to 8.00 | 
COCCNC(=O)[C@@H]1CCCCC1c1ncc(-c2ccc(-c3ccc(-c4cnc([C@@H]5CCCN5C(=O)[C@@H](NC(=O)OC)C(C)C)[nH]4)cc3)cc2)[nH]1 (stereo partly shown) [AA_114] |  | 8.00 to 9.00 | 
COC(=O)N[C@H](C(=O)N1CCC[C@H]1c1ncc(-c2ccc(-c3ccc(-c4cnc(C5CCCC[C@H]5C(=O)NCC5CC5)[nH]4)cc3)cc2)[nH]1)C(C)C (stereo partly shown) [AA_115] |  | 8.00 to 9.00 | 
COCCCNC(=O)[C@@H]1CCCCC1c1ncc(-c2ccc(-c3ccc(-c4cnc([C@@H]5CCCN5C(=O)[C@@H](NC(=O)OC)C(C)C)[nH]4)cc3)cc2)[nH]1 (stereo partly shown) [AA_116] |  | 8.00 to 9.00 | 
COC(=O)N[C@H](C(=O)N1CCC[C@H]1c1ncc(-c2ccc(-c3ccc(-c4cnc([C@@H]5[C@H]6CC[C@H](C6)[C@H]5C(=O)NCc5ccc(F)nc5)[nH]4)cc3)cc2)[nH]1)C(C)C [AA_214_ENDOA2] |  | 10.00 to 12.00 | 8.00 to 9.00
COC(=O)N[C@H](C(=O)N1CCC[C@H]1c1ncc(-c2ccc(-c3ccc(-c4cnc([C@@H]5C6CCC(C6)[C@H]5C(=O)NC5(C(=O)NCC(F)F)CCCCC5)[nH]4)cc3)cc2)[nH]1)C(C)C (stereo partly shown) [AA_275] |  | 10.00 to 12.00 | 7.00 to 8.00
COC(=O)N[C@H](C(=O)N1CCC[C@H]1c1ncc(-c2ccc(-c3ccc(-c4cnc([C@@H]5C6CCC(C6)[C@H]5C(=O)N[C@@H](C(=O)NCC(F)F)C(C)C)[nH]4)cc3)cc2)[nH]1)C(C)C (stereo partly shown) [AA_276] |  | 8.00 to 9.00 | 7.00 to 8.00
COC(=O)N[C@H](C(=O)N1CCC[C@H]1c1ncc(-c2ccc(-c3ccc(-c4cnc([C@@H]5C6CCC(C6)[C@H]5C(=O)NCC(=O)NCC(F)F)[nH]4)cc3)cc2)[nH]1)C(C)C (stereo partly shown) [AA_277] |  | 10.00 to 12.00 | 9.00 to 10.00
COC(=O)CNC(=O)C1(NC(=O)[C@@H]2C3CCC(C3)[C@H]2c2ncc(-c3ccc(-c4ccc(-c5cnc([C@@H]6CCCN6C(=O)[C@@H](NC(=O)OC)C(C)C)[nH]5)cc4)cc3)[nH]2)CCCCC1 (stereo partly shown) [AA_278] |  | 9.00 to 10.00 | 7.00 to 8.00
COC(=O)N[C@H](C(=O)N1CCC[C@H]1c1ncc(-c2ccc(-c3ccc(-c4cnc([C@@H]5[C@H]6CC[C@H](C6)[C@H]5C(=O)N[C@@H](C)c5nccs5)[nH]4)cc3)cc2)[nH]1)C(C)C [AA_279_ENDOA2_A] |  | 10.00 to 12.00 | 9.00 to 10.00
COC(=O)N[C@H](C(=O)N1CCC[C@H]1c1ncc(-c2ccc(-c3ccc(-c4cnc([C@@H]5[C@H]6CC[C@H](C6)[C@H]5C(=O)N[C@H](C)c5nccs5)[nH]4)cc3)cc2)[nH]1)C(C)C [AA_279_ENDOA2_B] |  | 10.00 to 12.00 | 8.00 to 9.00
COC(=O)N[C@H](C(=O)N1CCC[C@H]1c1ncc(-c2ccc(-c3ccc(-c4cnc([C@@H]5[C@H]6CC[C@H](C6)[C@H]5C(=O)N[C@H](C(=O)OC)C(C)C)[nH]4)cc3)cc2)[nH]1)C(C)C [AA_282_ENDOA2] |  | 10.00 to 12.00 | 8.00 to 9.00

Source: US10160771B2, “Hepatitis C virus inhibitors and uses thereof in preparation of drugs” (priority 2014, dated 2018)
